Reference: patent publication US20070293399A1, “SUBSTITUTED DIAMINO-1,3,5-TRIAZINES, PROCESSES FOR THEIR PREPARATION AND THEIR USE AS HERBICIDES AND CROP GROWTH REGULATORS” (Bayer CropScience AG, priority 2006, published 2007)

Columns and labels:
[1] = tested on: Stellaria media, Lolium multiflorum, Amaranthus retroflexus, Sinapis alba, Avena sativa and Setaria viridis; test: Pre-emergence herbicidal action (greenhouse pot test); type: in vivo; settings: application rate of 1 kg or less of active substance per hectare; scored visually after 3 to 4 weeks in comparison to untreated controls
Description: Seeds or rhizome pieces of mono- and dicotyledonous weed plants were placed in sandy loam in plastic pots and covered with soil. The inventive compounds, which have been formulated in the form of wettable powders or emulsion concentrates, were then applied to the surface of the covering soil as an aqueous suspension or emulsion in different dosages with an application rate of from 600 to 800 l/ha of water (converted).

[2] = tested on: Sinapis alba, Echinochloa crus-galli, Lolium multiflorum, Stellaria media, Cyperus iria, Amaranthus retroflexus, Setaria viridis, Avena sativa, Lamium …; test: Post-emergence herbicidal action (greenhouse pot test); type: in vivo; settings: application rate of 1 kg and less of active substance per hectare; treated at three-leaf stage; scored visually after approx. 3 to 4 weeks in comparison to untreated controls
Method: Seeds or rhizome pieces of mono- and dicotyledonous weeds were placed in sandy loam in plastic pots, covered with soil and grown in a greenhouse under good growth conditions. Three weeks after the sowing, the test plants were treated at the three-leaf stage. The inventive compounds formulated as spray powders or as emulsion concentrates were sprayed onto the green plant parts in various dosages with an application rate of from 600 to 800 l/ha of water (converted). After the test plants had been left to stand in the greenhouse under optimal growth conditions for approx. 3 to 4 weeks, the action of the preparations was scored visually in comparison to untreated controls. The inventive compositions also had good post-emergence herbicidal activity against a wide spectrum of economically important gramineous and broadleaf weeds.

Structure (SMILES) | herbicidal action against harmful plants in the pre-emergence method [1] | herbicidal action against harmful plants in the post-emergence method [2]
Cc1ccc2c(c1)C(Nc1nc(NC(=S)NCc3ccccc3)nc(C(C)F)n1)C(C)C2 (stereo not shown) [Compound 2.131] | very good herbicidal action | very good herbicidal action
CCCCNC(=S)Nc1nc(N[C@H]2c3cc(C)ccc3C[C@@H]2C)nc([C@@H](C)F)n1 [Compound 2.132] | very good herbicidal action | very good herbicidal action
CCNC(=S)Nc1nc(N[C@H]2c3cc(C)ccc3C[C@@H]2C)nc([C@@H](C)F)n1 [Compound 2.133] | very good herbicidal action | very good herbicidal action
Cc1ccc2c(c1)[C@H](Nc1nc(NC(=S)NCCc3ccc(Cl)cc3)nc([C@@H](C)F)n1)[C@@H](C)C2 [Compound 2.134] | very good herbicidal action | very good herbicidal action
Cc1ccc2c(c1)[C@H](Nc1nc(NC(=S)NCc3ccco3)nc([C@@H](C)F)n1)[C@@H](C)C2 [Compound 2.138] | very good herbicidal action | very good herbicidal action
Cc1ccc2c(c1)[C@H](Nc1nc(NC(=S)NC3CCCCC3)nc([C@@H](C)F)n1)[C@@H](C)C2 [Compound 2.139] | very good herbicidal action | very good herbicidal action
COc1cccc(NC(=O)Nc2nc(N[C@H]3c4cc(C)ccc4C[C@@H]3C)nc([C@@H](C)F)n2)c1 [Compound 2.140] | very good herbicidal action | very good herbicidal action
CC(=O)Nc1nc(N[C@H]2c3cc(C)ccc3C[C@@H]2C)nc(C(F)F)n1 [Compound 2.149] | very good herbicidal action | very good herbicidal action
CCC(=O)Nc1nc(N[C@H]2c3cc(C)ccc3C[C@@H]2C)nc(C(F)F)n1 [Compound 2.150] | very good herbicidal action | very good herbicidal action
Cc1ccc2c(c1)[C@H](Nc1nc(NC(=O)C(C)(C)C)nc(C(F)F)n1)[C@@H](C)C2 [Compound 2.151] | very good herbicidal action | very good herbicidal action
Cc1ccc2c(c1)[C@H](Nc1nc(N=CN(C)C)nc([C@@H](C)F)n1)[C@@H](C)C2 [Compound 2.153] | very good herbicidal action | very good herbicidal action
C[C@@H](F)c1nc(N=CN(C)C)nc(N[C@@H]2CCCc3ccccc32)n1 [Compound 2.154] | very good herbicidal action | very good herbicidal action
Cc1ccc2c(c1)[C@H](Nc1ncnc(N=CN(C)C)n1)[C@@H](C)C2 [Compound 2.155] | very good herbicidal action | very good herbicidal action
CC(=Nc1nc(N[C@H]2c3cc(C)ccc3C[C@@H]2C)nc([C@@H](C)F)n1)N(C)C [Compound 2.156] | very good herbicidal action | very good herbicidal action
CC(=Nc1nc(N[C@@H]2CCCc3ccccc32)nc([C@@H](C)F)n1)N(C)C [Compound 2.159, N′-{4-[(1R)-1-Fluoroethyl]-6-[(1R)-1,2,3,4-tetrahydronaphth-1-ylamino]-1,3,5-triazin2-yl}-N,N-dimethylethanimide amide] | very good herbicidal action | very good herbicidal action
CC(=Nc1ncnc(N[C@H]2c3cc(C)ccc3C[C@@H]2C)n1)N(C)C [Compound 2.160] | very good herbicidal action | very good herbicidal action
Cc1ccc2c(c1)[C@H](Nc1nc(C)nc(N=CN(C)C)n1)[C@@H](C)C2 [Compound 2.170] | very good herbicidal action | very good herbicidal action
C[C@@H]1Cc2ccccc2[C@@H]1Nc1nc(N=CN(C)C)nc(C(F)F)n1 [Compound 2.175] | very good herbicidal action | very good herbicidal action
Cc1ccc2c(c1)[C@H](Nc1nc(N=CN(C)C)nc(C(F)F)n1)[C@H](C)C2 [Compound 2.176] | very good herbicidal action | very good herbicidal action
CC(=Nc1nc(N[C@H]2c3cc(C)ccc3C[C@H]2C)nc(C(F)F)n1)N(C)C [Compound 2.177] | very good herbicidal action | very good herbicidal action
Cc1ccc2c(c1)[C@H](Nc1nc(N=CN3CCCCC3)nc(C(F)F)n1)[C@H](C)C2 [Compound 2.181] | very good herbicidal action | very good herbicidal action
Cc1ccc2c(c1)[C@H](Nc1nc(C=O)nc(C(F)F)n1)[C@H](C)C2 [Compound 2.190] | very good herbicidal action | very good herbicidal action
CCOC(C)=Nc1nc(N[C@H]2c3cc(C)ccc3C[C@H]2C)nc(C(F)F)n1 [Compound 2.191] | very good herbicidal action | very good herbicidal action
C[C@@H](F)c1nc(C=O)nc(N[C@@H]2CCCc3ccccc32)n1 [Compound 2.193] | very good herbicidal action | very good herbicidal action
Cc1ccc2c(c1)[C@H](Nc1ncnc(C=O)n1)[C@H](C)C2 [Compound 2.194] | very good herbicidal action | very good herbicidal action
Cc1ccc2c(c1)[C@H](Nc1nc(C=O)nc([C@@H](C)F)n1)[C@H](C)C2 [Compound 2.195] | very good herbicidal action | very good herbicidal action
